Reference: patent US8557823B2, “Family of PFKFB3 inhibitors with anti-neoplastic activities” (Advanced Cancer Therapeutics, LLC, priority 2007, dated 2013)
Converted amounts (≈) assume the structure as drawn. Where a name gives a salt, the structure may show the parent alone. Read-outs that look alike come from different tables or passages of the source.

Legend:
Jurkat = assay: Cancer cell proliferation, Alamar Blue assay 72 hours, Jurkat; type: cell-based
Protocol: (§1) The ability of the compounds described herein to kill or inhibit the proliferation of cancer cells was measured using either the MTT assay, the Alamar Blue assay, or the Cell Titer Glow® assay using 48 or 72 hours exposure. […] The procedures are briefly described below. Cells of the desired tumor cell line were plated at 2×10^5 cells/ml in 96 well plates. Twice the indicated concentrations of the compounds of the invention were added to cells the following day in an equal volume of media. 72 hours later, cells were lysed and subjected to ATP determination using the CellTiter Glo-Luminescent Cell Viability Assay kit (Promega, Madison, Wis.). Experiments were done in triplicate. When using the MTT assay or the Alamar blue assay, the experimental conditions are essentially similar; at the end of the incubation period, 20 microl of the MTT solution is added per well and the samples are incubated for an additional four hours, rinsed and the absorbance at 570 nm measured. Results for the inhibition of cells proliferation are reported as IC50 as commonly done (the concentration leading to a 50% inhibition of proliferation of the cell population) and are listed in the Tables below. Table 4 lists the IC50 for the compounds of the invention in several cell lines including Jurkat, Calu-6, NCI-H82, U937, or NCI-H1437 cancer cell lines. Table 5 lists the IC50 of PFK-070 in a panel of 10 cell lines.

U937 = assay: Cancer cell proliferation, Alamar Blue assay 72 hours, U937; type: cell-based; settings: Homo sapiens, U-937
Protocol: as §1

Calu-6 = assay: Cancer cell proliferation, Alamar Blue assay 72 hours, Calu-6; type: cell-based; settings: Homo sapiens
Protocol: as §1

NCI-H82 = assay: Cancer cell proliferation, Alamar Blue assay 72 hours, NCI-H82; type: cell-based; settings: Homo sapiens
Protocol: as §1

NCI-H1437 = assay: Cancer cell proliferation, Alamar Blue assay 72 hours, NCI-H1437; type: cell-based; settings: Homo sapiens
Protocol: as §1

[1] = biological target: T1, PFKFB3, the recombinant protein (Homo sapiens, UniProt Q16875); assay: Inhibition of recombinant PFKFB3 (Adapta Kinase assay); type: biochemical; settings: read-out: IC50 EArec
T1 construct: made in house; host or cells: E. coli
T1 sequence (Q16875 whole entry): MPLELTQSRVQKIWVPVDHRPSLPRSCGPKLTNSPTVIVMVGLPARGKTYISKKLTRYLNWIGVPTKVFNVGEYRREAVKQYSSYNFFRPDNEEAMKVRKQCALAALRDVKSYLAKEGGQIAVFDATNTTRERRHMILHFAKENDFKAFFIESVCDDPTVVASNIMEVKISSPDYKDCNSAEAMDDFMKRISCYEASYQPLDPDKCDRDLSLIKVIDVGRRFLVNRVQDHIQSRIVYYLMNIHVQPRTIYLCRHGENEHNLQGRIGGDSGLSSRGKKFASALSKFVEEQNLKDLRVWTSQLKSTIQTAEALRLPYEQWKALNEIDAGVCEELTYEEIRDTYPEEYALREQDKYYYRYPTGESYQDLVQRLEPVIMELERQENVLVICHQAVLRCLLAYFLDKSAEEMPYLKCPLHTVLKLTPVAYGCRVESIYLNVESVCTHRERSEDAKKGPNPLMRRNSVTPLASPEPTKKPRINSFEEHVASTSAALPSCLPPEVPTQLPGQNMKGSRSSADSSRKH
Protocol: PFKFB3 was prepared by expression in E. coli and purified by GST column and column chromatography. […] The recombinant protein was pure and active as determined by the results of a kinase activity assay commercially available (Adapta® Kinase assay).

[2] = Microsomal stability in human liver microsomes; type: in vitro ADME; settings: 0 min
Protocol: Microsomal stability in vitro in different biologic media (liver microsomes, S9 fraction, hepatocytes) and species is ascertained to evaluate the rate at which a compound undergoes metabolism in the experimental in vitro conditions. […] Experimental conditions are briefly described here: the stability in human liver microsomes of several compounds was done over […] at 37° C. using pooled mixed gender human liver microsomes. These liver microsomes were prepared at 1.0 mg/ml of microsomal protein in a 100 mM potassium phosphate pH 7.4 buffer with 1 mM NADPH. The media was incubated at 37° C. with the compound in solution in DMSO. The concentration of the compound was followed by LC/MS-MS as a function of time. […] Testosterone was used as a positive control. The same experiment was performed with mouse, rat or dog liver microsomes instead of human liver microsomes.

[3] = Solubility in dosing solution Cre:EtOH:Saline; type: physicochemical; settings: Cremophor:EtOH:Saline 5:5:90, aqueous with cosolvent or surfactant or cyclodextrin, kinetic from dmso stock; 5:5:90 Cremophor:EtOH:Saline, after 24 hours at room temperature
Description: (§2) Chemical properties of the compounds of the invention were investigated, mainly the solubility in several solvents and pharmaceutically accepted excipients or dosing solutions and the stability of these solutions. […] The increase in solubility when comparing the effect of chemical substituents is unpredictable and surprising if one compares the solubility values of PFK-070 to PFK-091 and PFK-070 to PFK-141 and 145 in a dosing solution that could be used to treat cancer patients (See Table 8A below). Briefly, selected compounds of the invention are dissolved in a small volume of the solvents/excipients of interest (Cremophor, or Cremophor:etoh or Tween80:etoh) at room temperature and diluted 1:9 in saline and left at room temperature for over 8 or 24 hours. Both the physical (absence of a precipitate) and the chemical stability (less than 5% degradation) of the solutions are measured (observation and HPLC after filtration).

[4] = Solution stability in clear and amber vials; type: physicochemical; settings: Cre:EtOH:Saline
Description: as §2
Furthermore, the solution stability of the compounds was investigated and it was discovered that, in normal conditions, they lack the appropriate solution stability as they undergo a rapid photoisomerization; this lack of solution stability is such that methods to prevent these compounds from reacting in solutions are necessary if these compounds are to be used as chemotherapeutic agents for the treatment of cancer patients.

[5] = Solubility profile in aqueous media; type: physicochemical; settings: 23 °C, aqueous buffer

Work on `O=C(/C=C/c1ccnc2ccccc12)c1ccncc1` [ACT-PFK-013, 1-Pyridin-4-yl-3-quinolin-4-yl-propenone] yielded an IC50 (Jurkat; Homo sapiens, Jurkat, 72 h) of 1 µM.

With `O=C(/C=C/c1cnc2ccccc2c1)c1ccncc1` [ACT-PFK-014, 1-Pyridin-4-yl-3-quinolin-3-yl-propenone] the IC50 (Jurkat) was 4 µM.

In the case of `O=C(/C=C/c1ccc2ccccc2n1)c1cccnc1` [ACT-PFK-035, 1-Pyridin-3-yl-3-quinolin-2-yl-propenone], the IC50 (Jurkat; Homo sapiens, Jurkat, 72 h) is reported as 2.5 µM.

Molecule `O=C(/C=C/c1ccnc2ccccc12)c1cccnc1` [ACT-PFK-036, 1-Pyridin-3-yl-3-quinolin-4-yl-propenone] has an IC50 (Jurkat; Homo sapiens, Jurkat, 72 h) of 2.5 µM.

For `O=C(/C=C/c1ccc2cccnc2c1)c1cccnc1` [ACT-PFK-037, 1-Pyridin-3-yl-3-quinolin-7-yl-propenone], the IC50 (Jurkat; Homo sapiens, Jurkat, 72 h) was 2.5 µM.

`O=C(/C=C/c1cccc2ncccc12)c1ccncc1` [ACT-PFK-038, 1-Pyridin-4-yl-3-quinolin-5-yl-propenone] showed an IC50 (Jurkat; Homo sapiens, Jurkat, 72 h) of 1 µM.

For `O=C(/C=C/c1cccc2ncccc12)c1cccnc1` [ACT-PFK-039, 1-Pyridin-3-yl-3-quinolin-5-yl-propenone], the IC50 (Jurkat; Homo sapiens, Jurkat, 72 h) was 1 µM.

For `O=C(/C=C/c1cccc2cccnc12)c1ccncc1` [ACT-PFK-047, 1-Pyridin-4-yl-3-quinolin-8-yl-propenone], the IC50 (Jurkat; Homo sapiens, Jurkat, 72 h) was 14 µM.

`O=C(/C=C/c1cnc2ccccc2c1)c1cccnc1` [ACT-PFK-048, 1-Pyridin-3-yl-3-quinolin-3-yl-propenone] showed an IC50 (Jurkat; Homo sapiens, Jurkat, 72 h) of 17 µM.

`O=C(/C=C/c1cnc2ccccc2c1)c1ccncc1` [ACT-PFK-055, 1-Pyridin-4-yl-3-quinolin-3-yl-propenone] gave an IC50 (Jurkat) of over 100 µM.

With `O=C(/C=C/c1cc(O)c2ccccc2n1)c1ccncc1` [ACT-PFK-066, 3-(4-Hydroxy-quinolin-2-yl)-1-pyridin-4-yl-propenone] the IC50 (Jurkat; Homo sapiens, Jurkat, 72 h) was 2.4 µM, the IC50 (U937) was 1.3 µM and the IC50 (Calu-6) was 3.8 µM.

In the case of `O=C(/C=C/c1ccc2cccc(O)c2n1)c1cccnc1` [ACT-PFK-067, 3-(8-Hydroxy-quinolin-2-yl)-1-pyridin-3-yl-propenone], the IC50 (Jurkat; Homo sapiens, Jurkat, 72 h) is reported as 3.1 µM, the IC50 (U937) is reported as 0.83 µM and the IC50 (Calu-6) is reported as 2.4 µM.

For `Cc1ccc(C(=O)/C=C/c2ccc3ccccc3n2)cc1` [ACT-PFK-068, 3-Quinolin-2-yl-1-p-tolyl-propenone], the IC50 (Jurkat; Homo sapiens, Jurkat, 72 h) was 5.5 µM, the IC50 (U937) was 1.6 µM and the IC50 (Calu-6) was 4.8 µM.

`Cc1ccc(C(=O)/C=C/c2ccc3cccc(O)c3n2)cc1` [ACT-PFK-071, 3-(8-Hydroxy-quinolin-2-yl)-1-p-tolyl-propenone] gave an IC50 (Jurkat; Homo sapiens, Jurkat, 72 h) of 4.8 µM, an IC50 (U937) of 1.9 µM and an IC50 (Calu-6) of 5 µM.

In the case of `Cc1ccc(C(=O)/C=C/c2cc(O)c3ccccc3n2)cc1` [ACT-PFK-073, 3-(4-Hydroxy-quinolin-2-yl)-1-p-tolyl-propenone], the IC50 (Jurkat; Homo sapiens, Jurkat, 72 h) is reported as 0.6 µM, the IC50 (U937) is reported as 0.2 µM and the IC50 (Calu-6) is reported as 0.8 µM.

For `O=C(/C=C/c1ccc2ccccc2n1)c1ccccc1O` [ACT-PFK-086, 1-(2-Hydroxy-phenyl)-3-quinolin-2-yl-propenone], the IC50 (Jurkat; Homo sapiens, Jurkat, 72 h) was 80.5 µM, the IC50 (U937) was 19.3 µM and the IC50 (NCI-H82) was 22.5 µM. The IC50 (Calu-6) was over 100 µM.

With `O=C(/C=C/c1ccc2ccccc2n1)c1ccc(O)cc1` [ACT-PFK-087, 1-(4-Hydroxy-phenyl)-3-quinolin-2-yl-propenone] the IC50 (Jurkat; Homo sapiens, Jurkat, 72 h) was 3.7 µM, the IC50 (U937) was 1.3 µM and the IC50 (NCI-H82) was 2.3 µM. For the same molecule, the IC50 (Calu-6) was 1.6 µM.

In the case of `Nc1ccccc1C(=O)/C=C/c1ccc2ccccc2n1` [ACT-PFK-088, 1-(2-Amino-phenyl)-3-quinolin-2-yl-propenone], the IC50 (Jurkat; Homo sapiens, Jurkat, 72 h) is reported as over 100 µM, the IC50 (U937) is reported as 17.2 µM and the IC50 (NCI-H82) is reported as 38.5 µM. It also gave an IC50 (Calu-6) of over 100 µM.

With `Nc1ccc(C(=O)/C=C/c2ccc3ccccc3n2)cc1` [ACT-PFK-089, 1-(4-Amino-phenyl)-3-quinolin-2-yl-propenone] the IC50 (Jurkat; Homo sapiens, Jurkat, 72 h) was 4.2 µM, the IC50 (U937) was 1.6 µM and the IC50 (NCI-H82) was 0.9 µM. For the same molecule, the IC50 (Calu-6) was 2.1 µM.

For `Cc1cccc2ccc(/C=C/C(=O)c3ccncc3)nc12` [ACT-PFK-141, 3-(8-Methyl-quinolin-2-yl)-1-pyridin-4-yl-propenone], the IC50 (Jurkat; Homo sapiens, Jurkat, 72 h) was 0.9 µM, the IC50 (NCI-H82) was 1.1 µM and the IC50 (NCI-H1437) was 5.4 µM. For the same molecule, the IC50 [1] was 0.21 ± 0.051 µM, the “Mean metabolized (%)” value [2] was 0% and the solubility at 24 h [3] was 800 µg/mL (≈ 2920 µM).

For `O=C(/C=C/c1ccc2ccccc2n1)c1ccnc(F)c1` [ACT-PFK-143, 1-(2-Fluoro-pyridin-4-yl)-3-quinolin-2-yl-propenone], the IC50 (Jurkat; Homo sapiens, Jurkat, 72 h) was 1.7 µM, the IC50 (NCI-H82) was 2.6 µM and the IC50 (NCI-H1437) was 4.3 µM. It also gave an IC50 [1] of 0.654 ± 0.095 µM.

In the case of `O=C(/C=C/c1ccc2cccc(F)c2n1)c1ccncc1` [ACT-PFK-145, 3-(8-Fluoro-quinolin-2-yl)-1-pyridin-4-yl-propenone], the IC50 (Jurkat; Homo sapiens, Jurkat, 72 h) is reported as 0.9 µM, the IC50 (NCI-H82) is reported as 1.5 µM and the IC50 (NCI-H1437) is reported as 4.7 µM. The IC50 [1] was 0.294 ± 0.038 µM, the “Mean metabolized (%)” value [2] was 0% and the solubility at 24 h [3] was 100 µg/mL (≈ 359 µM).

For `O=C(/C=C/c1ccc2cc(O)ccc2n1)c1ccncc1` [ACT-PFK-149, 3-(6-Hydroxy-quinolin-2-yl)-1-pyridin-4-yl-propenone], the IC50 [1] was 0.811 ± 0.266 µM and the solubility at 24 h [3] was 300 µg/mL (≈ 1090 µM).

For `CNc1cccc2ccc(/C=C/C(=O)c3ccncc3)nc12` [ACT-PFK-151, 3-(8-Methylamino-quinolin-2-yl)-1-pyridin-4-yl-propenone], the IC50 [1] was 0.289 ± 0.056 µM, the “Mean metabolized (%)” value [2] was 0% and the solubility at 24 h [3] was 1900 µg/mL (≈ 6570 µM).

For `Cc1ccc2ccc(/C=C/C(=O)c3ccncc3)nc2c1` [ACT-PFK-154, 3-(7-Methyl-quinolin-2-yl)-1-pyridin-4-yl-propenone], the IC50 [1] was 0.622 ± 0.039 µM and the “Mean metabolized (%)” value [2] was 0%.

In the case of `O=C(/C=C/c1ccc2cccc(O)c2n1)c1ccncc1` [PFK-070, HCl, 3-(8-Hydroxy-quinolin-2-yl)-1-pyridin-4-yl-propenone], the “Solubility stability, Amber Vials” value ([4]; 0 hrs) is reported as 1000 µg/mL, the “Solubility stability, Amber Vials” value ([4]; 2 hrs) is reported as “No change” and the “appearance of solution, Clear Vials” value ([4]; 2 hrs) is reported as “Change in color”. The “Solubility stability, Amber Vials” value ([4]; 4 hrs) was “No change”, the “appearance of solution, Clear Vials” value ([4]; 4 hrs) was “Change in color” and the “Solubility stability, Amber Vials” value ([4]; 8 hrs) was “No change”. For the same molecule, the “appearance of solution, Clear Vials” value ([4]; 8 hrs) was “Change in color”, the solubility at 0 h ([4]; Cremophor:EtOH:Saline solution, aqueous with cosolvent or surfactant or cyclodextrin, kinetic from dmso stock, 0 hrs) was 1000 µg/mL and the solubility at 2 h ([4]; Cremophor:EtOH:Saline solution, aqueous with cosolvent or surfactant or cyclodextrin, kinetic from dmso stock, 2 hrs) was 900 µg/mL. For the same molecule, the solubility at 4 h ([4]; Cremophor:EtOH:Saline solution, aqueous with cosolvent or surfactant or cyclodextrin, kinetic from dmso stock, 4 hrs) was 800 µg/mL and the solubility at 8 h ([4]; Cremophor:EtOH:Saline solution, aqueous with cosolvent or surfactant or cyclodextrin, kinetic from dmso stock, 8 hrs) was under 700 µg/mL.

`Cc1cccc2ccc(/C=C/C(=O)c3ccncc3)nc12` [PFK-141, HCl, 3-(8-Methyl-quinolin-2-yl)-1-pyridin-4-yl-propenone] gave a solubility ([5]; pH = 5) of 1700 µg/mL and a solubility ([5]; pH = 7) of 1900 µg/mL.

Work on `Cc1ccc2ccc(/C=C/C(=O)c3ccncc3)nc2c1` [PFK-154, HCl, 3-(7-Methyl-quinolin-2-yl)-1-pyridin-4-yl-propenone] yielded a solubility ([5]; pH = 5) of 2400 µg/mL and a solubility ([5]; pH = 7) of 3400 µg/mL.
